Source: US10376520B2, “Methods for the treatment of cardiovascular disorders” (Galapagos NV, priority 2015, dated 2019)

Tested on: Subjects With Active Crohn's Disease
Assay: [HDL] determination, Study 5 (Crohn's disease)
Format: in vivo, human
Details: for [HDL] Mean CFB - 10 weeks results: 200 mg q.d.
Text: Double-Blind, Randomized, Placebo-Controlled, Multi-Centre Study to Investigate the Efficacy and Safety of Compound 1 in Subjects With Active Crohn's Disease With Evidence of Mucosal Ulceration.
This is a double-blind, randomized, placebo-controlled, multi-centre Phase 2 study to investigate the efficacy and safety of Compound 1 administered once daily for the treatment of active CD with evidence of mucosal ulceration. The pharmacokinetics (including a PK substudy) and pharmacodynamics of Compound 1 and metabolite in CD will also be characterised.
A total of 180 eligible subjects will be randomized to receive Compound 1 or placebo in addition to their stable background treatment (eg, corticosteroids, aminosalicylates, or CD-related antibiotics). The study will consist of 2 parts, with total treatment duration of 20 weeks. Randomization in Part 1 will be stratified according the subject's previous anti-TNF exposure/response, CRP level at Screening, and oral corticosteroid use at visit Day −1.
After the first 10 weeks of treatment in Part 1, patients will be re-randomized for Part 2 as shown in the diagram below and will be stratified according to the subject's clinical response, previous anti-TNF exposure/response, and oral corticosteroid use at visit Day −1.
The following assays were conducted at Eurofins Global Central Laboratory, Bergschot 71, 4817 PA Breda, The Netherlands, and at Quest Diagnostics, Clinical Trials, Quest House, 125-135 Staines Road, Hounslow, Middlesex, TW3 3JB, United Kingdom. The assays for Study 5 were performed at BARC Europe, 3B, Industrie Park, Zwijnaarde, B-9052 Ghent, Belgium.
This assay relies on a homogeneous enzymatic colorimetric test. In the presence of magnesium ions, dextran sulfate selectively forms water-soluble complexes with LDL, VLDL and chylomicrons which are resistant to PEG-modified enzymes.
The cholesterol concentration of [HDL]-cholesterol is determined enzymatically by cholesterol esterase and cholesterol oxidase coupled with PEG to the amino groups (approx. 40%).
In the presence of peroxidase, the hydrogen peroxide generated reacts with 4-amino-antipyrine and Sodium N-(2-hydroxy-3-sulfopropyl)-3,5-dimethoxyaniline (HSDA) to form a purple-blue dye. The color intensity of this dye is directly proportional to the cholesterol concentration and is measured photometrically.
Human serum and plasma samples [HDL] determination was done on a Roche/Hitachi Cobas c 701/702 system which automatically calculate the analyte concentration of each sample. Samples containing precipitates are centrifuged before performing the assay.

[1] = 200 mg q.d. week 0 to 10, to 100 mg q.d. week 10 to 20, week 4
[2] = 200 mg q.d. week 0 to 10, to 100 mg q.d. week 10 to 20, week 6
[3] = 200 mg q.d. week 0 to 10, to 100 mg q.d. week 10 to 20, week 10
[4] = 200 mg q.d. week 0 to 10, to 100 mg q.d. week 10 to 20, week 12
[5] = 200 mg q.d. week 0 to 10, to 100 mg q.d. week 10 to 20, week 16
[6] = 200 mg q.d. week 0 to 10, to 100 mg q.d. week 10 to 20, week 20
[7] = 200 mg q.d. week 0 to 10, to placebo week 10 to 20, week 2
[8] = 200 mg q.d. week 0 to 10, to placebo week 10 to 20, week 4
[9] = 200 mg q.d. week 0 to 10, to placebo week 10 to 20, week 6
[10] = 200 mg q.d. week 0 to 10, to placebo week 10 to 20, week 10
[11] = 200 mg q.d. week 0 to 10, to placebo week 10 to 20, week 12
[12] = 200 mg q.d. week 0 to 10, to placebo week 10 to 20, week 16
[13] = 200 mg q.d. week 0 to 10, to placebo week 10 to 20, week 20
[14] = continued 200 mg q.d. (N = 77), week 2
[15] = continued 200 mg q.d. (N = 77), week 4
[16] = continued 200 mg q.d. (N = 77), week 6
[17] = continued 200 mg q.d. (N = 77), week 10
[18] = continued 200 mg q.d. (N = 77), week 12
[19] = continued 200 mg q.d. (N = 77), week 16
[20] = continued 200 mg q.d. (N = 77), week 20
[21] = placebo week 0 to 10, then 100 mg q.d. (N = 22), week 12
[22] = placebo week 0 to 10, then 100 mg q.d. (N = 22), week 16
[23] = placebo week 0 to 10, then 100 mg q.d. (N = 22), week 20
[24] = placebo week 0 to 10, to 100 mg q.d. week 10 to 20, week 12
[25] = placebo week 0 to 10, to 100 mg q.d. week 10 to 20, week 16
[26] = placebo week 0 to 10, to 100 mg q.d. week 10 to 20, week 20

O=C(Nc1nc2cccc(-c3ccc(CN4CCS(=O)(=O)CC4)cc3)n2n1)C1CC1 [Compound 1, cyclopropanecarboxylic acid {5-[4-(1,1-dioxo-thiomorpholin-4-ylmethyl)-phenyl]-[1,2,4]triazolo[1,5-a]pyridin-2yl}-amide]
[HDL] Mean CFB - 20 weeks results [1]: 25.33%
[HDL] Median CFB - 10 weeks results [1]: 16.75%
[HDL] Mean CFB - 20 weeks results [2]: 25.93%
[HDL] Median CFB - 10 weeks results [2]: 23.04%
[HDL] Mean CFB - 20 weeks results [3]: 26.29%
[HDL] Median CFB - 10 weeks results [3]: 19.61%
[HDL] Mean CFB - 20 weeks results [4]: 14.27%
[HDL] Median CFB - 10 weeks results [4]: 10.66%
[HDL] Mean CFB - 20 weeks results [5]: 11.19%
[HDL] Median CFB - 10 weeks results [5]: 2.24%
[HDL] Mean CFB - 20 weeks results [6]: 15.54%
[HDL] Median CFB - 10 weeks results [6]: 10.18%
[HDL] Mean CFB - 20 weeks results [7]: 13.75%
[HDL] Median CFB - 10 weeks results [7]: 13.54%
[HDL] Mean CFB - 20 weeks results [8]: 23.62%
[HDL] Median CFB - 10 weeks results [8]: 27.96%
[HDL] Mean CFB - 20 weeks results [9]: 13.52%
[HDL] Median CFB - 10 weeks results [9]: 13.45%
[HDL] Mean CFB - 20 weeks results [10]: 14.87%
[HDL] Median CFB - 10 weeks results [10]: 15.66%
[HDL] Mean CFB - 20 weeks results [11]: −3.87%
[HDL] Median CFB - 10 weeks results [11]: −1.75%
[HDL] Mean CFB - 20 weeks results [12]: −7.46%
[HDL] Median CFB - 10 weeks results [12]: −3.07%
[HDL] Mean CFB - 20 weeks results [13]: −8.40%
[HDL] Median CFB - 10 weeks results [13]: −4.82%
[HDL] Mean CFB - 10 weeks results (week 2): 17.940%
[HDL] Mean CFB - 10 weeks results (week 4): 19.414%
[HDL] Mean CFB - 10 weeks results (week 6): 20.199%
[HDL] Mean CFB - 10 weeks results (week 10): 19.734%
[HDL] Mean CFB - 20 weeks results [14]: 0.23 mmol/L
[HDL] Median CFB - 20 weeks results [14]: 0.21 mmol/L
[HDL] Mean CFB - 20 weeks results [15]: 0.18 mmol/L
[HDL] Median CFB - 20 weeks results [15]: 0.16 mmol/L
[HDL] Mean CFB - 20 weeks results [16]: 0.24 mmol/L
[HDL] Median CFB - 20 weeks results [16]: 0.21 mmol/L
[HDL] Mean CFB - 20 weeks results [17]: 0.22 mmol/L
[HDL] Median CFB - 20 weeks results [17]: 0.25 mmol/L
[HDL] Mean CFB - 20 weeks results [18]: 0.20 mmol/L
[HDL] Median CFB - 20 weeks results [18]: 0.15 mmol/L
[HDL] Mean CFB - 20 weeks results [19]: 0.17 mmol/L
[HDL] Median CFB - 20 weeks results [19]: 0.20 mmol/L
[HDL] Mean CFB - 20 weeks results [20]: 0.10 mmol/L
[HDL] Median CFB - 20 weeks results [20]: 0.15 mmol/L
[HDL] Mean CFB - 20 weeks results [21]: 0.03 mmol/L
[HDL] Median CFB - 20 weeks results [21]: 0.12 mmol/L
[HDL] Mean CFB - 20 weeks results [22]: 0.09 mmol/L
[HDL] Median CFB - 20 weeks results [22]: 0.12 mmol/L
[HDL] Mean CFB - 20 weeks results [23]: 0.00 mmol/L
[HDL] Median CFB - 20 weeks results [23]: 0.10 mmol/L
[HDL] Mean CFB - 20 weeks results [24]: 5.75%
[HDL] Median CFB - 10 weeks results [24]: 8.64%
[HDL] Mean CFB - 20 weeks results [25]: 10.06%
[HDL] Median CFB - 10 weeks results [25]: 8.63%
[HDL] Mean CFB - 20 weeks results [26]: 3.77%
[HDL] Median CFB - 10 weeks results [26]: 11.27%
